We go through 7 compounds from PubChem BioAssay (NCI).

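All cell lines were grown in 96-well plates and treated with compound for 48 hours. GI50 marks 50% less growth. TGI: concentration producing complete growth inhibition.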

Among the test systems are OVCAR-4 ovarian; IGROV1 ovarian; CCRF-CEM leukemia; UACC-62 melanoma; HCT-116 colon; NCI-H23 lung; HT29 colon; NCI-H226 lung; MALME-3M melanoma; K-562 leukemia.
Test in all cases: inhibition of tumour cell growth, NCI panel, 48 h

For the compound `Nc1ccn(C2OC(CO)C(O)C2O)c(=O)c1` (stereo not drawn), the TGI with OVCAR-4 ovarian, in the assay with IGROV1 ovarian, with CCRF-CEM leukemia, in the assay on UACC-62 melanoma, in the assay with HCT-116 colon and in the assay on NCI-H23 lung was > 625 µM throughout. Moreover, the TGI is > 625 µM in the assay on HT29 colon, > 625 µM in the assay on NCI-H226 lung and 365 µM with MALME-3M melanoma.
`CN1C2CCC1CC(C)(O)C2` (stereo not drawn): the TGI in the assay on CCRF-CEM leukemia, in the assay on HCT-116 colon, in the assay with NCI-H23 lung, with K-562 leukemia, with HT29 colon and in the assay on NCI-H226 lung was > 100 µM in each case. In addition, the TGI with MALME-3M melanoma is > 100 µM.
As for `COc1ccc(-c2nn(-c3ccc(NC(=O)Nc4cc(C(F)(F)F)cc(C(F)(F)F)c4)cc3)cc2-c2ccncc2)cc1Cl`, the GI50 is 2.82 µM with OVCAR-4 ovarian; 3.45 µM with IGROV1 ovarian; 2.28 µM in the assay on CCRF-CEM leukemia; 2.02 µM in the assay on UACC-62 melanoma; 1.53 µM with HCT-116 colon; 2.78 µM with NCI-H23 lung. Besides, the GI50 was 2.77 µM in the assay on K-562 leukemia, 2.75 µM in the assay with HT29 colon, 4.1 µM with NCI-H226 lung and 2.11 µM with MALME-3M melanoma. Moreover, the TGI in the assay with OVCAR-4 ovarian is 60.7 µM; in the assay on IGROV1 ovarian it was > 100 µM; with CCRF-CEM leukemia it was > 100 µM; in the assay on UACC-62 melanoma, 5.02 µM; with HCT-116 colon, 3.52 µM; with NCI-H23 lung, > 100 µM. In addition, the TGI in the assay on K-562 leukemia is > 100 µM; in the assay with HT29 colon, > 100 µM; in the assay with NCI-H226 lung, 34.2 µM; with MALME-3M melanoma, 7.88 µM.
As for `COc1ccc(N2C(=O)CSC2c2c[nH]c3ccccc23)cc1` (stereo not drawn), the TGI in the assay with OVCAR-4 ovarian, in the assay with IGROV1 ovarian, in the assay with CCRF-CEM leukemia, in the assay with UACC-62 melanoma, with HCT-116 colon and in the assay with NCI-H23 lung was > 100 µM each time. Also, the TGI in the assay on K-562 leukemia and with HT29 colon was > 100 µM each time.
Regarding `O=C(N/N=C/c1cc(Br)cc(Br)c1[O-])c1ccccc1O.O=C(N/N=C/c1cc(Br)cc(Br)c1[O-])c1ccccc1O.[Cu+2]`, the TGI with OVCAR-4 ovarian amounted to 0.56 µM; in the assay on IGROV1 ovarian, 1.06 µM; in the assay with CCRF-CEM leukemia, 4.54 µM; with UACC-62 melanoma it was 0.551 µM; in the assay with NCI-H23 lung, 0.484 µM; in the assay with K-562 leukemia, 0.213 µM. Moreover, the TGI in the assay on HT29 colon came to 2.5 µM; in the assay on NCI-H226 lung, 1.98 µM; with MALME-3M melanoma, 1.35 µM. Besides, the GI50 with CCRF-CEM leukemia is 0.446 µM.
With `COc1ccc(C2COc3cc(O)c(O)cc3C2)cc1` (stereo not drawn), the TGI in the assay on OVCAR-4 ovarian amounted to 45.6 µM; with IGROV1 ovarian, 148 µM; in the assay on CCRF-CEM leukemia it was 16.1 µM; in the assay with UACC-62 melanoma it was 46.3 µM; in the assay on HCT-116 colon, 42.1 µM; in the assay on NCI-H23 lung, 159 µM. The TGI with K-562 leukemia is 34.2 µM; in the assay on HT29 colon it was 204 µM; in the assay on NCI-H226 lung, 213 µM; with MALME-3M melanoma, 59.3 µM.
With `O=c1c(C(c2ccc(Cl)cc2)c2c(O)c3ccccc3n(-c3ccccc3)c2=O)c(O)c2ccccc2n1-c1ccccc1`, the TGI in the assay on OVCAR-4 ovarian, in the assay on IGROV1 ovarian, in the assay with CCRF-CEM leukemia, in the assay with UACC-62 melanoma, in the assay on HCT-116 colon and with NCI-H23 lung was > 100 µM each time. Moreover, the TGI in the assay with K-562 leukemia was > 100 µM; in the assay with NCI-H226 lung, > 100 µM; with MALME-3M melanoma, 60.1 µM.
